Reference: ChEMBL document CHEMBL4321865, “Discovery of Novel Inhibitors of LpxC Displaying Potent in Vitro Activity against Gram-Negative Bacteria” (J Med Chem, 2020)
Converted amounts (≈) assume the structure as drawn.

Tests used:
[1] = tested on: T1, UDP-3-O-acyl-N-acetylglucosamine deacetylase (Pseudomonas aeruginosa (strain ATCC 15692 / PAO1 / 1C / PRS 101 / LMG12228)), P47205 [C40S]
T1 sequence (whole entry): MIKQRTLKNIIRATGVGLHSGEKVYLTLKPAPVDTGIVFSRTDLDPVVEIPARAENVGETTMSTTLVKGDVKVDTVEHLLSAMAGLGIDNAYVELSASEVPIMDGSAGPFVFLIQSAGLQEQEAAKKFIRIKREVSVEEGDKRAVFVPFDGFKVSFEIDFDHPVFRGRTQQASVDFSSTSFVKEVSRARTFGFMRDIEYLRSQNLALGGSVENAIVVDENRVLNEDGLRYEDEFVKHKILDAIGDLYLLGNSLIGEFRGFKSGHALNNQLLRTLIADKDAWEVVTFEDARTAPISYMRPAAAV

Klebsiella pneumoniae = experiment: microbe, parasite or virus in culture; conditions: T 6474
Description: Antibacterial activity against multi-drug resistant Klebsiella pneumoniae T 6474 by broth microdilution method

Escherichia coli [2] = experiment: microbe, parasite or virus in culture; conditions: ATCC 25922
Description: Antibacterial activity against wild-type Escherichia coli ATCC 25922 by broth microdilution method

Pseudomonas aeruginosa [3] = experiment: microbe, parasite or virus in culture; conditions: ATCC 27853
Description: Antimicrobial activity against Pseudomonas aeruginosa ATCC 27853 by broth microdilution method

[4] = tested on: T2, UDP-3-O-acyl-N-acetylglucosamine deacetylase (Escherichia coli K-12), P0A725 [C125S]
T2 sequence (whole entry): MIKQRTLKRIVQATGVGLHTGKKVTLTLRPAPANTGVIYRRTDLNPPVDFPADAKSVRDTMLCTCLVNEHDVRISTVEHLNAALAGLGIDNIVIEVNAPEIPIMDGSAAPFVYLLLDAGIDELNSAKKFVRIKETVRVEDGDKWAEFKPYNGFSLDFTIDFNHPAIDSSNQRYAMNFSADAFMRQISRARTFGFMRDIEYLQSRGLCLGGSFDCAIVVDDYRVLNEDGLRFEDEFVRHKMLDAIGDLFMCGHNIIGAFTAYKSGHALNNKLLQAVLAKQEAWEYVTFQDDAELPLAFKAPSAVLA

Pseudomonas aeruginosa [5] = experiment: Antimicrobial activity against Pseudomonas aeruginosa PA2616 harboring delta mexAB-OprM mutant by broth microdilution method; type: functional
Pseudomonas aeruginosa [6] = experiment: microbe, parasite or virus in culture; conditions: PAO1
Description: Antimicrobial activity against wild-type Pseudomonas aeruginosa PAO1 by broth microdilution method

Escherichia coli [7] = experiment: Antibacterial activity against Escherichia coli infected in cyclophosphamide-induced NMRI/ICR CD-1 mouse model of neutropenic thigh infection assessed as reduction in thigh bacterial load at 50 mg/kg, sc measured after 22 hrs relative to control; type: functional
physchem [8] = conditions: DMSO, pH 4
Description: Solubility of the compound in DMSO at pH 4 incubated for 24 hrs by LC-UV method

in vivo = conditions: NMRI/ICR CD-1, mouse, sc, 50 mg/kg
Escherichia coli [9] = experiment: Antibacterial activity against Escherichia coli infected in cyclophosphamide-induced NMRI/ICR CD-1 mouse model of neutropenic thigh infection assessed as reduction in thigh bacterial load at 150 mg/kg, sc measured after 22 hrs relative to control; type: functional
[10] = mouse, in vivo, sc, 50 mg/kg
Mus musculus [11] = experiment: Apparent unbound clearance in NMRI/ICR CD-1 mouse at 50 mg/kg, sc by LC-MS/MS analysis; type: ADME, organism-based; conditions: in vivo
[12] = Cmax in NMRI/ICR CD-1 mouse at 50 mg/kg, sc by LC-MS/MS analysis; type: ADME, organism-based; parameters: dose 50 mg/kg, route subcutaneous; conditions: in vivo
[13] = Tmax in NMRI/ICR CD-1 mouse at 50 mg/kg, sc by LC-MS/MS analysis; type: ADME, organism-based; conditions: in vivo
[14] = mouse, plasma, 1 µM
Description: Protein binding in mouse plasma assessed as fraction unbound at 1 uM by equilibrium dialysis method

[15] = Apparent clearance in NMRI/ICR CD-1 mouse at 50 mg/kg, sc by LC-MS/MS analysis; type: ADME, organism-based; conditions: in vivo
physchem [16] = conditions: DMSO, pH 7
Description: Solubility of the compound in DMSO at pH 7 incubated for 24 hrs by LC-UV method

[17] = AUC (0 to 24 hrs) in NMRI/ICR CD-1 mouse at 150 mg/kg, sc by LC-MS/MS analysis; type: ADME, organism-based; parameters: dose 150 mg/kg, time < 24 hr, route subcutaneous; conditions: in vivo
[18] = Free AUC (0 to 24 hrs) in NMRI/ICR CD-1 mouse at 150 mg/kg, sc by LC-MS/MS analysis; type: ADME, organism-based; conditions: in vivo
[19] = Tmax in NMRI/ICR CD-1 mouse at 150 mg/kg, sc by LC-MS/MS analysis; type: ADME, organism-based; conditions: in vivo
Mus musculus [20] = experiment: Apparent unbound clearance in NMRI/ICR CD-1 mouse at 150 mg/kg, sc by LC-MS/MS analysis; type: ADME, organism-based; conditions: in vivo
physchem [21] = conditions: DMSO, pH 9
Description: Solubility of the compound in DMSO at pH 9 incubated for 24 hrs by LC-UV method

[22] = Apparent clearance in NMRI/ICR CD-1 mouse at 150 mg/kg, sc by LC-MS/MS analysis; type: ADME, organism-based; conditions: in vivo
physchem [23] = conditions: n-octanol/phosphate buffered saline, pH 7.4
Description: n-Octanol/phosphate buffered saline partition coefficient, log D of the compound at pH 7.4 by LC-UV method

Escherichia coli [24] = experiment: Antibacterial activity against Escherichia coli infected in cyclophosphamide-induced NMRI/ICR CD-1 mouse model of neutropenic thigh infection assessed as reduction in thigh bacterial load at 112.54 mg/kg, sc administered at 5.5 hrs interval for 4 times relative to control; type: functional
Escherichia coli [25] = experiment: Antibacterial activity against Escherichia coli infected in cyclophosphamide-induced NMRI/ICR CD-1 mouse model of neutropenic thigh infection assessed as reduction in thigh bacterial load at 450 mg/kg, sc administered as single dose measured after 22 hrs relative to control; type: functional
[26] = Apparent clearance in NMRI/ICR CD-1 mouse at 75 mg/kg, sc by LC-MS/MS analysis; type: ADME, organism-based; conditions: in vivo
[27] = Free AUC (0 to 24 hrs) in NMRI/ICR CD-1 mouse at 75 mg/kg, sc by LC-MS/MS analysis; type: ADME, organism-based; conditions: in vivo
Mus musculus [28] = experiment: Apparent unbound clearance in NMRI/ICR CD-1 mouse at 75 mg/kg, sc by LC-MS/MS analysis; type: ADME, organism-based; conditions: in vivo

Compound	ΔTm [1] [°C]	MIC (Klebsiella pneumoniae) [µg/mL]	MIC (Escherichia coli [2]) [µg/mL]	MIC (Pseudomonas aeruginosa [3]) [µg/mL]	ΔTm [4] [°C]	MIC (Pseudomonas aeruginosa [5]) [µg/mL]	MIC (Pseudomonas aeruginosa [6]) [µg/mL]	solubility at 24 h (physchem [8]) [µg/mL]	Cmax [12] [ng/mL]	Fu [14] [%]	solubility at 24 h (physchem [16]) [µg/mL]	solubility at 24 h (physchem [21]) [µg/mL]	logD (physchem [23])	other results
COc1ccc(-c2cn3c(n2)CN(CC[C@](C)(C(=O)NO)S(C)(=O)=O)C3=O)c(F)c1	6.9	16 (≈ 36.3 µM)	4 (≈ 9.08 µM)	> 32	6	8 (≈ 18.2 µM)	> 32							
COc1ccc(-c2cn(CC[C@@](C)(C(=O)NO)S(C)(=O)=O)c(=O)o2)c(F)c1	3.7	> 32	> 32	> 32	1.9	16 (≈ 39.8 µM)	> 32							
COc1ccc(-c2cnc3c(c2)CN(CCC(C)(C(=O)NO)S(C)(=O)=O)C3=O)c(F)c1 (racemic)	7	> 32	32 (≈ 70.9 µM)	32 (≈ 70.9 µM)	5.6	16 (≈ 35.4 µM)	> 32							
C[C@@](CCN1Cc2cc(C#CC#C[C@H]3C[C@@H]3CO)cn2C1=O)(C(=O)NO)S(C)(=O)=O	13.2	0.25 (≈ 0.577 µM)	0.12 (≈ 0.277 µM)	0.25 (≈ 0.577 µM)	11.2		0.5 (≈ 1.15 µM)	600 (≈ 1380 µM)	22600	0.009				fold change (FC) (Escherichia coli [7]): 1.8; AUC(0-t) at 24 h (in vivo): 41000 ng·h/mL; fold change (FC) (Escherichia coli [9]): 0.8; fAUC [10]: 370 ng·h/mL; CLu/F (Mus musculus [11]): 2300 mL/min/kg; Tmax [13]: 30 min; CL/F [15]: 20.2 mL/min/kg
C[C@@](CCN1Cc2cc(C#CC#CC3(N)CC3)cn2C1=O)(C(=O)NO)S(C)(=O)=O.Cl	11.6	0.25	0.25	0.5	10		0.5	571	8600	0.078	418	536		AUC(0-t) at 24 h [17]: 14900 ng·h/mL; fAUC [18]: 1160 ng·h/mL; fold change (FC) (Escherichia coli [7]): 2.8; fold change (FC) (Escherichia coli [9]): 1.8; Tmax [19]: 30 min; CLu/F (Mus musculus [20]): 716 mL/min/kg; CL/F [22]: 55.9 mL/min/kg
COc1ccc(-c2cc3n(c2)C(=O)N(CC[C@](C)(C(=O)NO)S(C)(=O)=O)C3)c(F)c1	11.5	0.25 (≈ 0.569 µM)	0.12 (≈ 0.273 µM)	1 (≈ 2.28 µM)	8.1	0.12 (≈ 0.273 µM)	0.5 (≈ 1.14 µM)				37 (≈ 84.2 µM)	302 (≈ 687 µM)	1.8	
COc1ccc(-c2ccc3c(c2)oc(=O)n3CC[C@](C)(C(=O)NO)S(C)(=O)=O)c(F)c1	11	4 (≈ 8.84 µM)	0.5 (≈ 1.11 µM)	8 (≈ 17.7 µM)	8.2	≤ 0.06	4 (≈ 8.84 µM)				7 (≈ 15.5 µM)	66 (≈ 146 µM)	2.2	
C[C@@](CCN1Cc2cc(C#CC#CC3(CO)CC3)cn2C1=O)(C(=O)NO)S(C)(=O)=O	12.5	1 (≈ 2.31 µM)	0.25 (≈ 0.577 µM)	0.5 (≈ 1.15 µM)	9.9		1 (≈ 2.31 µM)		20200	0.085				fold change (FC) (Escherichia coli [24]): 1.5; fold change (FC) (Escherichia coli [7]): 2.1; AUC(0-t) at 24 h (in vivo): 33000 ng·h/mL; fold change (FC) (Escherichia coli [9]): 0.8; fAUC [10]: 2810 ng·h/mL; CLu/F (Mus musculus [11]): 295 mL/min/kg; fold change (FC) (Escherichia coli [25]): 1; Tmax [13]: 30 min; CL/F [15]: 25.1 mL/min/kg
COc1ccc(-c2ccn(CC[C@](C)(C(=O)NO)S(C)(=O)=O)c(=O)c2)c(F)c1		0.25 (≈ 0.606 µM)	≤ 0.06	0.5 (≈ 1.21 µM)		≤ 0.06	0.25 to 0.5 (≈ 0.606 to 1.21 µM)		10300	0.31	130 (≈ 315 µM)	692 (≈ 1680 µM)	1.1	CL/F [26]: 72 mL/min/kg; fAUC [27]: 3620 ng·h/mL; AUC(0-t) at 24 h (in vivo): 11700 ng·h/mL; CLu/F (Mus musculus [28]): 231 mL/min/kg
COc1ccc(-c2cn(CC[C@](C)(C(=O)NO)S(C)(=O)=O)c(=O)o2)c(F)c1	9.9	16 (≈ 39.8 µM)	8 (≈ 19.9 µM)	8 (≈ 19.9 µM)	5.2	1 (≈ 2.49 µM)	8 (≈ 19.9 µM)							
COc1ccc(-c2ccc3c(c2)CN(CC[C@](C)(C(=O)NO)S(C)(=O)=O)C3=O)c(F)c1	11	≤ 0.06	≤ 0.06	2 (≈ 4.44 µM)	9.1	0.25 (≈ 0.555 µM)	2 (≈ 4.44 µM)				5 (≈ 11.1 µM)	22 (≈ 48.8 µM)	1.9	
C[C@@](CCN1Cc2cc(C#Cc3ccc([C@H](O)CO)cc3)cn2C1=O)(C(=O)NO)S(C)(=O)=O	12.7	1 (≈ 2.1 µM)	0.5 (≈ 1.05 µM)	1 (≈ 2.1 µM)	11.1		1 (≈ 2.1 µM)	167 (≈ 351 µM)	41300	0.016	605 (≈ 1270 µM)	660 (≈ 1390 µM)	0.5	fold change (FC) (Escherichia coli [7]): 2.4; AUC(0-t) at 24 h (in vivo): 76500 ng·h/mL; fold change (FC) (Escherichia coli [9]): 0.4; fAUC [10]: 1230 ng·h/mL; CLu/F (Mus musculus [11]): 680 mL/min/kg; Tmax [13]: 30 min; CL/F [15]: 10.8 mL/min/kg
CC(C)(O)c1ccc(C#Cc2ccc3c(c2)CN(CC[C@](C)(C(=O)NO)S(C)(=O)=O)C3=O)cc1	12.8	0.5 (≈ 1.03 µM)	0.25 (≈ 0.516 µM)	4 (≈ 8.25 µM)	9.5		8 (≈ 16.5 µM)	4 (≈ 8.25 µM)			7 (≈ 14.4 µM)	136 (≈ 281 µM)	2.3	
C[C@@](CCN1Cc2cc(C#Cc3ccc(C4(CO)CC4)cc3)cn2C1=O)(C(=O)NO)S(C)(=O)=O	13.6	0.25 (≈ 0.515 µM)	0.12 (≈ 0.247 µM)	0.5 (≈ 1.03 µM)	11.8		0.5 (≈ 1.03 µM)	5 (≈ 10.3 µM)			7 (≈ 14.4 µM)	56 (≈ 115 µM)	2	
COc1ccc(-c2cc3c(s2)C(=O)N(CC[C@](C)(C(=O)NO)S(C)(=O)=O)C3)c(F)c1	12.4	0.25 (≈ 0.548 µM)	≤ 0.06	1 (≈ 2.19 µM)	9.3	0.12 (≈ 0.263 µM)	0.5 (≈ 1.1 µM)				5 (≈ 11 µM)	36 (≈ 78.9 µM)	2.1	
CC(C)(O)C#CC#Cc1ccc2c(c1)CN(CC[C@](C)(C(=O)NO)S(C)(=O)=O)C2=O	12.6	2 (≈ 4.62 µM)	1 (≈ 2.31 µM)	2 (≈ 4.62 µM)	8.5		2 (≈ 4.62 µM)	71 (≈ 164 µM)			97 (≈ 224 µM)	564 (≈ 1300 µM)	1.2	
